Experimental data reported in article PMC7266096 (ACS infectious diseases, 2020).
≈ marks a conversion by molar mass, not a printed value. Like-named read-outs stand apart in the source and are kept apart here. Marks after values point to notes of the source that are not given here.

Tests used:
NDM-1 [1] = biological target: T1, NDM-1 (Klebsiella pneumoniae, UniProt C7C422); test: biochemical; assay type: biochemical; settings: for inhibition of nitrocefin turnover: at the concentrations tested, up to 320 μM
Target sequence in this assay (C7C422 29-270, looked up): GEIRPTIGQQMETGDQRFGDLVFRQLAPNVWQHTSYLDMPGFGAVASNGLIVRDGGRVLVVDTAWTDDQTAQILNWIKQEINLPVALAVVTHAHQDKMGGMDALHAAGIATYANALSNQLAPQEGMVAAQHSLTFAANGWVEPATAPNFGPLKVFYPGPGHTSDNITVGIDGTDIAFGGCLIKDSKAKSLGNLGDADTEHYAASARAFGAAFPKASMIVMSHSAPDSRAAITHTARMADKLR

[2] = system: E. coli MG1655 expressing NDM-1; test: microbe, parasite or virus in culture; assay type: cell-based; settings: for MIC: Escherichia coli; for MG1655 MIC: compound alone, 20 h, Mueller-Hinton broth
[3] = system: E. coli UTI89 expressing NDM-1; test: microbe, parasite or virus in culture; assay type: cell-based; settings: for MIC: Escherichia coli; for UTI89 MIC: compound alone, Mueller-Hinton broth
susceptible strains = settings: no reference given; cited from earlier work
NDM-1 [4] = biological target: T1, NDM-1; assay type: cell-based, E. coli; settings: for reduction of nitrocefin turnover: 100 μM, treated for 60 minutes at room temperature
Target sequence in this assay (C7C422 37-270 limits assumed): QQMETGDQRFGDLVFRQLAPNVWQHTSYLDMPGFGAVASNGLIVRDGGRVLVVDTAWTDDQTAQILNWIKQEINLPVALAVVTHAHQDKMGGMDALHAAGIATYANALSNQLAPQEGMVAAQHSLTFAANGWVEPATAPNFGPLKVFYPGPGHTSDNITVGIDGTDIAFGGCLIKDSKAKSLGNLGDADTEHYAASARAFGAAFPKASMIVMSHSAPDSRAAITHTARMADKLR

[5] = system: E. coli MG1655 expressing NDM-1; assay type: cell-based
[6] = system: E. coli MG1655 expressing CTX-M-1; assay type: cell-based
NDM-1 [7] = biological target: T1, NDM-1; assay type: binding; settings: 10 μM NDM-1, after dialysis
Target sequence in this assay (C7C422 29-270, looked up): as the sequence (C7C422 29-270, looked up) above

CoCo-NDM-1 = CoCo-NDM-1 (Klebsiella pneumoniae, UniProt C7C422); assay type: binding; settings: 300 μM CoCo-NDM-1, one or two equivalents of compound
NDM-1 [8] = biological target: T1, NDM-1; assay type: biochemical; settings: 0–60 μM inhibitor; for change of Vmax with increasing inhibitor concentration: 10 nM NDM-1, Figure S5; for inhibition mode: 10 nM NDM-1, nitrocefin 63–500 μM
Target sequence in this assay (C7C422 29-270, looked up): as above

NDM-1 [9] = biological target: T1, NDM-1; test: Turnover of PcephPT by purified NDM-1; assay type: biochemical; settings: 5 nM NDM-1, concentrations up to 160 μM, HEPES pH 7.2, 37 °C
Target sequence in this assay (C7C422 29-270, looked up): as above

[10] = MG1655, 20 h, read-out: MG1655 MIC
[11] = OD600 every 30 minutes over 20 h

CoCo-NDM-1, sequence (C7C422 29-270, looked up): as above

CO/N=C(\C(=O)N[C@@H]1C(=O)N2C(C(=O)O)=C(CSc3nc(=O)c(=O)[nH]n3C)CS[C@H]12)c1csc(N)n1 [Ceftriaxone]
IC50 (NDM-1 [1]): 16 µM

CC1=C(C(=O)O)N2C(=O)[C@@H](NC(=O)[C@H](N)c3ccccc3)[C@H]2SC1 [Cephalexin]
IC50 (NDM-1 [1]): 36 µM

CC(=O)OCC1=C(C(=O)O)N2C(=O)[C@@H](NC(=O)Cc3cccs3)[C@H]2SC1 [Cephalothin]
IC50 (NDM-1 [1]): 9.1 µM

O=C(O)c1cccc(C(=O)O)n1 [DPA, dipicolinic acid]
IC50 (NDM-1 [1]): 1.8 µM

C[C@@H](O)[C@H]1C(=O)N2C(C(=O)O)=C(SCCN=CN)C[C@H]12 [Imipenem]
IC50 (NDM-1 [1]): > 100 µM
inhibition of nitrocefin turnover (NDM-1 [1]): did not inhibit nitrocefin turnover

C[C@@H](O)[C@H]1C(=O)N2C(C(=O)O)=C(S[C@@H]3CN[C@H](C(=O)N(C)C)C3)[C@H](C)[C@H]12 [Meropenem]
IC50 (NDM-1 [1]): > 100 µM
inhibition of nitrocefin turnover (NDM-1 [1]): did not inhibit nitrocefin turnover
MIC [2, 10]: > 160 µM
MIC ([2]; MG1655, read-out: MG1655 MIC of meropenem): 10 µM
MG1655 MIC [2]: >160 µM
MG1655 MIC of meropenem ([2]; with fixed 10 μM PT): not restored
MG1655 MIC of meropenem ([2]; with fixed 10 μM PcephPT): not restored
MIC ([3]; 20 h, read-out: UTI89 MIC): > 160 µM
MIC ([3]; read-out: UTI89 MIC of meropenem): 10 µM
UTI89 MIC ([3]; 20 h): >160 µM
UTI89 MIC of meropenem ([3]; with fixed 10 μM PT): not restored
UTI89 MIC of meropenem ([3]; with fixed 10 μM PcephPT): not restored
MIC (susceptible strains): lower than 10 μM

[O-][n+]1ccccc1S [PT, pyrithione]
IC50 (NDM-1 [1]): 17 µM
reduction of nitrocefin turnover (NDM-1 [4]): more than 75%
MIC [2, 10]: 20 µM (≈ 2.54 µg/mL)
MIC ([3]; 20 h, read-out: UTI89 MIC): 40 µM (≈ 5.09 µg/mL)
concentration that fully inhibits growth [5, 11]: ≥ 20 µM
growth pattern ([5]; at 10 μM): delayed growth
concentration that fully inhibits growth [6, 11]: ≥ 20 µM
growth pattern ([6]; at 10 μM): delayed growth
zinc removed from NDM-1 (NDM-1 [7]; 40 μM (four equivalents)): did not lead to loss of zinc
zinc removed from NDM-1 (NDM-1 [7]; 160 μM (sixteen equivalents)): did not lead to loss of zinc
change of CoCo-NDM-1 UV-Vis spectrum (CoCo-NDM-1): increase in absorbance in the 500–650 nm region
change of Vmax with increasing inhibitor concentration (NDM-1 [8]): clear decrease in Vmax
inhibition mode (NDM-1 [8]): not competitive

O=C(Cc1ccccc1)N[C@@H]1C(=O)N2C(C(=O)O)=C(CSc3cccc[n+]3[O-])CS[C@H]12 [PcephPT, 2-((((6R,7R)-2-carboxy-8-oxo-7-(2-phenylacetamido)-5-thia-1-azabicyclo[4.2.0]oct-2-en-3-yl)methyl)thio)pyridine 1-oxide]
effect of increasing incubation time with NDM-1 on IC50 (NDM-1 [1]; Figure S2): did not affect its IC50
turnover of compound by NDM-1 (NDM-1 [9]): turned over by 5 nM NDM-1 efficiently
reduction of nitrocefin turnover (NDM-1 [4]): more than 75%
inhibition of nitrocefin turnover (NDM-1 [4]; cells exposed for only 30 minutes, compared with 60 minutes): less inhibited
MIC [2, 10]: > 160 µM
MG1655 MIC [2]: >160 ^* μM
MIC ([3]; 20 h, read-out: UTI89 MIC): > 160 µM
UTI89 MIC ([3]; 20 h): >160 ^* μM
effect of addition of copper on growth pattern ([5]; Figure S3): no significant difference
time of onset of growth inhibition ([5]; at concentrations of 40 μM and higher): between five and eight hours
concentration giving delayed onset of growth inhibition ([5]; growth initially in all conditions): ≥ 40 µM
growth pattern ([6]; varying concentrations, compared with PT): identical to that caused by PT
zinc removed from NDM-1 (NDM-1 [7]; 40 μM (four equivalents)): did not lead to loss of zinc
zinc removed from NDM-1 (NDM-1 [7]; 160 μM (sixteen equivalents)): did not lead to loss of zinc
change of CoCo-NDM-1 UV-Vis spectrum (CoCo-NDM-1): increase in absorbance in the 500–650 nm region
change of Vmax with increasing inhibitor concentration (NDM-1 [8]): clear decrease in Vmax
inhibition mode (NDM-1 [8]): not competitive

c1ccc(CN(CCN(Cc2ccccn2)Cc2ccccn2)Cc2ccccn2)nc1 [TPEN, N,N,N′,N′-tetrakis(2-pyridinylmethyl)-1,2-ethanediamine]
IC50 (NDM-1 [1]): 0.088 µM
